In article PMC12223358 (2025):

How the values were obtained:
[1] = system: tel26 (DNA, G4) TTAGGGTTAGGGTTAGGGTTAGGGTT; assay: CD melting, 290 nm; details: 20 mM KCl, 5 mM potassium phosphate, pH 7, 2 µM DNA, 4 µM compound (2 equiv), free Tm 43 °C
[2] = system: ds12 (DNA, duplex) CGCGAATTCGCG; assay: CD melting, 253 nm; details: 20 mM KCl, 5 mM potassium phosphate; pH 7; 2 µM DNA; 4 µM compound (2 equiv); free Tm 65 °C
[3] = system: CPG-tel26 (DNA, G4) TTAGGGTTAGGGTTAGGGTTAGGGTT; assay: G4-CPG affinity chromatography, UV; details: 50 mM KCl; 10% DMSO, 10% ethanol; 60 µM compound loaded; error ±2%
[4] = system: CPG-c-myc (DNA, G4) TGGGGAGGGTGGGGAGGGTGGGGAAGGTGGGGA; assay: G4-CPG affinity chromatography, UV; details: 50 mM KCl; 10% DMSO, 10% ethanol; 60 µM compound loaded; error ±2%
[5] = system: CPG-ds27 (DNA, hairpin) CGCGAATTCGCGTTTCGCGAATTCGCG; assay: G4-CPG affinity chromatography, UV; details: 50 mM KCl; 10% DMSO, 10% ethanol; 60 µM compound loaded; error ±2%
[6] = system: pu22 (DNA, G4) TGAGGGTGGGTAGGGTGGGTAA; assay: CD melting, 263 nm; details: no metal cations, 10 mM Tris-HCl, pH 7, 2 µM DNA, 4 µM compound (2 equiv), free Tm 27 °C
[7] = system: ds12 (DNA, duplex) CGCGAATTCGCG; assay: CD titration; details: 20 mM KCl, 5 mM potassium phosphate; pH 7, 20 °C; 2 µM DNA; up to 4 µM compound; no relevant CD effect

Row | SMILES | ΔTm ([1]; switch to parallel fold) | ΔTm [2] | Bound ligand (%) [3] | Bound ligand (%) [4] | Bound ligand (%) [5] | ΔTm [6] | binding [7] | ΔTm ([6]; two transitions) | ΔTm [1]
1 | C[n+]1ccc(C#Cc2cnc3n2c2ncc(C#Cc4cc[n+](C)cc4)n2c2ncc(C#Cc4cc[n+](C)cc4)n32)cc1 | +23 °C | +15 °C | 75% | 90% | 50% | – | – | – | –
2 | C[n+]1ccc(C#Cc2cnc3n4ccnc4n4c(C#Cc5cc[n+](C)cc5)cnc4n23)cc1 | – | – | 79% | 100% | 40% | +45 °C | – | – | –
3 | C[n+]1ccc(C#Cc2cnc3n4ccnc4n4ccnc4n23)cc1 | – | – | 66% | 88% | 15% | +8 °C | no | – | –
4 | C[n+]1ccccc1C#Cc1cnc2n3ccnc3n3ccnc3n12 | – | −2 °C | 72% | 85% | 10% | – | no | – | +3 °C

Continued, values first:

Row | ΔTm ([1]; switch to parallel fold) | ΔTm [2] | Bound ligand (%) [3] | Bound ligand (%) [4] | Bound ligand (%) [5] | ΔTm [6] | binding [7] | ΔTm ([6]; two transitions) | ΔTm [1] | SMILES
5 | +22 °C | +15 °C | 89% | 99% | 56% | – | – | +16/ + 63 °C | – | C[n+]1ccccc1C#Cc1cnc2n1c1ncc(C#Cc3cccc[n+]3C)n1c1ncc(C#Cc3cccc[n+]3C)n21
6 | – | – | 74% | 84% | 39% | – | – | – | – | C[n+]1ccccc1C#Cc1cnc2n3ccnc3n3c(C#Cc4cccc[n+]4C)cnc3n12
